According to patent US4963570A, “1-(acetylaminophenyl)-2-aminopropanone derivatives and pharmaceutical compositions thereof” (Laboratoire L. Lafon, priority 1983, dated 1990):
“Also recorded” adds a separate entry of the source. Structures can show the parent of a compound that is named as a salt.

Legend:
dogs = test: cardiovascular action in anesthetized dogs; format: in vivo, dog; conditions: control dogs, noradrenaline alone
Experimental: Four dogs (average weight: 13.8 kg), anesthetized with nembutal, receive CRL 41 220 by intraduodenal administration at successive doses of 0.1 mg/kg, 0.5 mg/kg, 1 mg/kg, 2.5 mg/kg, 5 mg/kg and 10 mg/kg. The blood pressure, the heart beat, the flow rate through the femoral artery, the flow rate through the vertebral artery and the rectal and/or skin temperature are measured and the coloration of the skin and the bile (collected by catheterization of the bile duct after ligature of the cystic duct) is observed.

male mice [1] = test: influence of catecholamines on hyperactivity in mice; format: in vivo, mouse; conditions: I.V.C., 10 μg
Experimental: A further series of assays was carried out on mice according to the teaching of S. L. HANDLEY et al. "Influences of catecholamines on dexamphetamine, induced changes in locomotor activity", Psychopharmacology 58, 283-288 (1978), in order to observe a potential influence of dopamine or moradrenaline on the hyperactivity induced by CRL 41 152.
After a habituation period of 1.5 h to the actimeters, male mice (grouped into batches of 10 animals each and a control batch of 20 animals) were administered (under slight anesthesia with ether) per intraventriculocerebral injection (i.e. I.V.C. route) with (i) either 10 μg of noradrenaline, or 10 μg of dopamine or 10 μl (0.5 μl/second) of saline solution, then (ii) 5 minutes later, with CRL 41 152 (in solution in distilled water) per I.P. route in a volume of 20 ml/kg, immediately before replacing the mice in the actimeters vherein their motility was recorded for 1 hour by measuring the number of crossed rays per period of 5 minutes).
Batches receiving CRL 41 152 per I.P. route with noradreanaline or dopamine per I.V.C. route were compared with (i) the control batch receiving the saline solution per I.V.C. route then distilled water per I.P. route, and (ii) batches receiving only noradrenaline, dopamine (per I.V.C. route) or CRL 41 152 (per I.P. route).

mice [2] = test: overall behavior and reactivities in mice; format: in vivo, mouse; conditions: i.p.
Experimental: (§1) Groups of three animals are observed before and then 0.25 hour, 0.50 hour, 1 hour, 2 hours, 3 hours and 24 hours after the administration of CRL 41 224.

rats [3] = test: overall behavior and reactivities in rats; format: in vivo, rat; conditions: i.p., dose not stated
Experimental: as §1

mice [4] = test: interaction with apomorphine in mice; format: in vivo, mouse; conditions: i.p.
Experimental: Groups of 6 mice receive CRL 41 224 0.5 hour before the subcutaneous injection of 1 or 16 mg/kg of apomorphine.

rats [5] = test: interaction with apomorphine in rats; format: in vivo, rat; conditions: i.p., dose not stated
Experimental: CRL 41 224 is administered to groups of 6 rats 0.5 hour before the subcutaneous injection of 0.5 mg/kg of apomorphine.

rats [6] = test: interaction with amphetamine; format: in vivo, rat; conditions: i.p.
Experimental: Amphetamine (2 mg/kg) is injected intraperitoneally into groups of 6 rats 30 minutes after the administration of CRL 41 224.

mice [7] = test: interaction with reserpine; format: in vivo, mouse; conditions: i.p.
Experimental: Four hours after the intraperitoneal injection of 2.5 mg/kg of reserpine, groups of 6 mice receive CRL 41 224.

mice [8] = test: interaction with oxotremorine; format: in vivo, mouse; conditions: i.p.
Experimental: CRL 41 224 is administered to groups of 6 mice 0.5 hour before the intraperitoneal injection of 0.5 mg/kg of oxotremorine.

mice [9] = test: four plate test, traction and electric shock; format: in vivo, mouse; conditions: i.p.
Experimental: The test is performed on groups of 10 mice 30 minutes after the administration of CRL 41 224.

mice [10] = test: action on the spontaneous motility (actimeter); format: in vivo, mouse; conditions: mice, i.p.; dose not stated
Experimental: 0.5 hour after they have received CRL 41 224, the mice (6 per dose, 12 control animals) are placed in an actimeter, where their motility is recorded for 30 minutes.

mice [11] = test: motility reduced by habituation to the enclosure; format: in vivo, mouse; conditions: i.p.
Experimental: After they have stayed in the actimeters for 18 hours, the mice (6 per dose, 12 control animals) receive CRL 41 224. They are immediately returned to their respective enclosures and, half an hour later, their motility is recorded for 30 minutes.

mice [12] = test: motility reduced by hypoxic aggression; format: in vivo, mouse; conditions: i.p.
Experimental: Half an hour after they have received CRL 41 224, the mice (10 per dose, 20 control animals) are subjected to acute hypobaric anoxia [pressure reduction of 600 mm Hg (i.e. about 8×10^4 Pa) in 90 seconds; release of vacuum in 45 seconds] and are then placed in an actimeter, where their motility is recorded for 10 minutes.

mice [13] = test: interaction with barbital; format: in vivo, mouse; conditions: i.p.; dose not stated
Experimental: Half an hour after the administration of CRL 41 224, groups of 10 mice receive an intraperitoneal injection of barbital (220 mg/kg).

mice [14] = test: action on the behavioral despair; format: in vivo, mouse; conditions: i.p.
From the text: Half an hour after they have received CRL 41 224, groups of 6 mice are placed in a beaker filled with water to a height of 6 cm. The total period of immobility between the 2nd and 6th minutes following immersion is noted.

CNS = test: overall neuropsychopharmacological (CNS) profile; format: in vivo, mouse; rat; conditions: i.p.
Experimental: The neuropsychopharmacological study of CRL 41 219 was carried out as indicated above for CRL 41 224.
The neuropsychopharmacological study of CRL 41 220 was carried out in accordance with the procedures given above for CRL 41 224.

[15] = system: peripheral α-adrenergic stimulation; test: signs of peripheral adrenergic stimulation; format: in vivo, mouse; rat; conditions: i.p.; dose not stated
Experimental: as §1

mice [16] = test: toxicity to grouped mice compared with isolated mice; format: in vivo, mouse
rats [17] = test: action on stereotypies in rats (α-methyltyrosine, haloperidol, reserpine); conditions: i.p.
male mice [18] = test: acute toxicity, intraperitoneal (lethal doses); format: in vivo, mouse; conditions: i.p.
Experimental: By intraperitoneal administration to male mice, the LD-30 (lethal dose for 30% of the animals tested) is of the order of 128 mg/kg and the LD-50 is of the order of about 200 mg/kg.

[19] = system: delayed hypersensitivity to the red blood corpuscles of sheep; test: delayed hypersensitivity to the red blood corpuscles of sheep (Miller); format: in vivo
immunological properties = test: immunological properties, overall; format: in vivo; conditions: dose not stated
From the text: The present 1-(acetylaminophenyl)-2-aminopropanone derivatives are useful in therapy. They all act on the CNS, more precisely as antidepressants. They have a stimulant or excitant component in their neuropsychopharmacological profile.

[20] = system: spleen cells expressing a direct IgM antibody response; test: test for cells forming lysis areas (PFC IgM, Cunningham); format: in vivo, mouse; conditions: 0.1, 10 and 100 mg/kg
Experimental: Immunological assays were carried out in order to point out the interest of CRL 41 240 as an immunomodulating agent. Specifically, the test used was the so-called test for cells forming lysis areas, described by A. J. […] et al. ("Further improvements in the plaque technique for detecting simple antibody forming cells"), Immunology 14, pages 599-601 (1968).
The test for cells forming lysis areas (or PFC IgM) explores the humoral immunity. Four days after immunization with a T-dependent antigen (in this case red blood corpuscles of sheep), the spleen cells expressing a direct IgM antibody response are counted. The mice used for this purpose are conventional female OF1 mice devoid of specific pathogenic organisms, weighing from 20 to 30 g and divided up into a control group of 14 animals and groups each containing 7 animals per dose and per product to be studied, administered orally on the same day as the antigen. An activity index I is calculated for each dose of product according to the following equation: [formula]
This test is performed at least twice for each dose of test product [C(control amimals), 0.01, 0.1, 10 and 100 mg/kg] and a statistical study is undertaken using the Student t test after variance analysis on the number of lyses per spleen.

NC[C@H](O)c1ccc(O)c(O)c1 [noradrenaline, reference compound]
systolic blood pressure with 2 μg/kg of noradrenaline, control animals (dogs): 323 mm Hg | locomotor effect by comparison with saline (male mice [1]): did not cause any visible locomotor effect

NCCc1ccc(O)c(O)c1 [dopamine, reference compound]
locomotor effect by comparison with saline (male mice [1]): did not cause any visible locomotor effect

CNC(C)C(=O)c1ccc(NC(C)=O)cc1 (centres unmarked) [CRL 41 217]
excitation in mice (mice [2]; mice, dose not stated): excitation with hyperreactivity in mice | stereotype movements in rats (rats [3]): stereotype movements in rats | hypothermia induced by apomorphine (mice [4]; dose not stated): antagonism of the hypothermia induced by apomorphine | stereotypies induced by apomorphine (rats [5]): potentiation of the stereotypies induced by apomorphine | stereotypies induced by amphetamine (rats [6]; rats, dose not stated): potentiation of the stereotypies induced by apomorphine or amphetamine | hypothermia induced by reserpine (mice [7]; dose not stated): antagonism of the hypothermia induced by apomorphine, oxotremorine or reserpine | ptosis induced by reserpine (mice [7]; dose not stated): antagonism of the ptosis induced by reserpine | hypothermia induced by oxotremorine (mice [8]; dose not stated): antagonism of the hypothermia induced by apomorphine, oxotremorine | trembling caused by oxotremorine (mice [8]; dose not stated): antagonism of the trembling caused by oxotremorine | convulsant effects of electric shock (mice [9]; dose not stated): potentiate the convulsant effects of electric shock | spontaneous motility / motor activity (mice [10]): an increase in the spontaneous motility in mice | motor activity after habituation to the enclosure (mice [11]; dose not stated): a resumption in the motor activity of mice accustomed to their enclosure | motor recovery after hypoxic aggression (mice [12]; dose not stated): an improvement in the motor recovery in mice after acute hypoxia | sleep induced by barbital (mice [13]): antagonism of the sleep induced by barbital | period of immobility or "despair" (mice [14]; dose not stated): a reduction in the immobility | overall action on the CNS (CNS; mice and rats, dose not stated): stimulant effects; also recorded: antidepressant effects | exophthalmos [15]: absent | mydriasis [15]: mydriasis | peripheral adrenergic stimulation, overall [15]: effects which may reflect peripheral adrenergic stimulation | salivation [15]: absent | toxicity to grouped mice compared with isolated mice (mice [16]): do not increase the toxicity to grouped mice | suppression of induced stereotype movements by prior injection of alpha-methyltyrosine (rats [17]): not suppressed

CC(=O)Nc1ccc(C(=O)C(C)N2CCSCC2)cc1 (centres unmarked) [CRL 41 247]
LD-0 (maximum non-lethal dose) (male mice [18]): greater than 512 mg/kg | LD-60 (male mice [18]): about 1000 mg/kg | hypothermia, temperature change (mice [2]; 256 mg/kg, 30 minutes after administration): -3.3 °C | body temperature (hypothermia) (mice [2]; strong/high doses): hypothermia | hypothermia induced by apomorphine (mice [4]; strong doses): very moderate antagonism of the hypothermia induced by apomorphine | stereotypies induced by amphetamine (rats [6]; strong doses): potentiation of the stereotypies induced by amphetamine | hypothermia induced by reserpine (mice [7]; strong doses): no antagonism towards the hypothermia induced by reserpine | hypothermia induced by oxotremorine (mice [8]; strong/high doses): very moderate antagonism of the hypothermia induced by apomorphine and oxotremorine | convulsant effects of electric shock (mice [9]; strong/high dose): a reduction in the convulsant effects of electric shock | motor activity after habituation to the enclosure (mice [11]; strong doses): an increase in the motor activity of mice after habituation to their enclosure | motor activity after acute hypoxia (mice [12]; strong doses): an increase in the motor activity of mice after habituation to their enclosure and after acute hypoxia | period of immobility of mice forcibly immersed (mice [14]; strong/high doses): a reduction in the period of immobility | cell activity (technique of Miller et al.) ([19]; dose not stated): stimulates cell activity | overall action on the CNS (CNS; strong/high doses): discreet antidepressant effects; also recorded: stimulant effects | immunological properties, overall (immunological properties): beneficial immunomodulating effects

CC(=O)Nc1cccc(C(=O)C(C)N2CCCCC2)c1 (centres unmarked) [CRL 41 262, 1-(3-acetylaminophenyl)-2-piperidinopropanone hydrochloride]
immunostimulant activity, PFC IgM test [20]: immunostimulant activity | immunostimulant activity, delayed hypersensitivity ([19]; oral, 10 and 100 mg/kg): immunostimulant activity | overall action on the CNS (CNS; mice and rats, dose not stated): antidepressant and stimulant effects on the CNS | immunological properties, overall (immunological properties; hydrochloride): beneficial immunomodulating effects; also recorded: particularly valuable as an immunomodulator
